Results published in the supplement of paper PMC8882468.

How the values were obtained:
Assay in all cases: CTG-3D luminescence at 96 h relative to day-0 seeding control (ratio to day 0); higher = more growth / less cytotoxicity; PDxO 3D drug screen, 96 h, CTG-3D normalised to day-0 seeding control.
HCI-008 = system: HCI-008 (organoid from a HER2-enriched breast cancer xenograft)
HCI-023 = system: HCI-023 (organoid from a triple-negative breast cancer xenograft)
HCI-011.E2 = system: HCI-011.E2 (organoid from an ER-positive breast cancer xenograft)
HCI-027 = system: HCI-027 (organoid from a triple-negative breast cancer xenograft)
HCI-010 = system: HCI-010 (organoid from a breast cancer xenograft)
HCI-025 = system: HCI-025 (organoid from a breast cancer xenograft)

CC1(C)CCC(c2ccc(Cl)cc2)=C(CN2CCN(c3ccc(C(=O)NS(=O)(=O)c4ccc(N[C@H](CCN5CCOCC5)CSc5ccccc5)c(S(=O)(=O)C(F)(F)F)c4)cc3)CC2)C1 [navitoclax]
CTG-3D luminescence at 96 h
Conditions | 12.5 pM | 0.00025 µM | 0.005 µM | 0.1 µM | 1 µM | 10 µM | 100 µM | 625 fM
HCI-008, days in culture: 228 | 1.53 | 1.62 | 1.55 | 1.61 | 1.2 | 0.854 | 0.0594 | 1.77
HCI-008, days in culture: 244 | 1.31 | 1.99 | 1.94 | 2.06 | 1.57 | 0.824 | 0.0293 | 2.52
HCI-010, days in culture: 52 | 2.01 | 2.27 | 2.15 | 0.695 | 0.0507 | 0.0304 | 0.0084 | 2.13
HCI-010, days in culture: 65 | 1.61 | 1.66 | 1.65 | 0.573 | 0.026 | 0.0135 | 0.00305 | 1.8
HCI-010, days in culture: 103 | 3.2 | 3.28 | 3.13 | 1.08 | 0.0477 | 0.0368 | 0.0191 | 2.7
HCI-011.E2, days in culture: 74 | 2.04 | 2.51 | 2.16 | 2.38 | 2.09 | 2.86 | 0.137 | 1.84
HCI-023, days in culture: 111 | 1.82 | 1.42 | 1.19 | 1.26 | 0.739 | 0.432 | 0.0151 | 1.83
HCI-023, days in culture: 128 | 1.58 | 1.8 | 1.53 | 1.82 | 1.1 | 0.995 | 0.00828 | 1.58
HCI-025, days in culture: 172 | 3.28 | 1.84 | 2.93 | 0.781 | 0.555 | -0.249 | -0.109 | 2.63
HCI-025, days in culture: 209 | 1.95 | 2.53 | 2.24 | 1.27 | 1.81 | 0.666 | 0.00258 | 2.29
HCI-025, days in culture: 218 | 1.36 | 1.87 | 1.59 | 1.15 | 0.81 | 0.293 | 0.0152 | 1.91
HCI-027, days in culture: 176 | 2.47 | 2.17 | 3.4 | 1.89 | 2.39 | 1.32 | -0.194 | 3.28
HCI-027, days in culture: 194 | 2.18 | 1.78 | 2.01 | 2.17 | 2.24 | 1.75 | 0.198 | 2.27
HCI-027, days in culture: 201 | 3.21 | 2.62 | 3.27 | 3.18 | 2.73 | 1.5 | 0.0321 | 2.76

HCI-011.E2
Conditions | CTG-3D luminescence at 96 h
12.5 pM | 1.62
0.00025 µM | 1.82
0.005 µM | 1.33
0.1 µM | 1.72
1 µM | 1.52
10 µM | 1.84
100 µM | 0.144
625 fM | 1.8

NC(=O)c1cccc2cn(-c3ccc([C@@H]4CCCNC4)cc3)nc12 [niraparib]
CTG-3D luminescence at 96 h
Conditions | 12.5 pM | 0.00025 µM | 0.005 µM | 0.1 µM | 1 µM | 10 µM | 100 µM | 625 fM
HCI-008, days in culture: 228 | 1.87 | 1.97 | 1.45 | 1.55 | 1.34 | 0.828 | 0.00065 | 1.72
HCI-008, days in culture: 244 | 1.42 | 1.98 | 1.91 | 2.31 | 1.77 | 1.17 | -0.000168 | 2.42
HCI-010, days in culture: 52 | 1.94 | 2.41 | 2.17 | 2.55 | 2.02 | 0.332 | 0.006 | 2.06
HCI-010, days in culture: 65 | 1.44 | 1.78 | 1.88 | 1.63 | 1.54 | 0.382 | 0.000688 | 1.62
HCI-010, days in culture: 103 | 3.06 | 3.18 | 3.13 | 3.19 | 2.67 | 0.397 | 0.00829 | 2.94
HCI-011.E2, days in culture: 74 | 1.93 | 2.01 | 1.98 | 1.97 | 1.88 | 2.89 | 0.00301 | 1.92
HCI-023, days in culture: 111 | 1.92 | 1.44 | 1.58 | 1.16 | 0.886 | 0.393 | -0.00664 | 1.85
HCI-023, days in culture: 128 | 1.57 | 1.57 | 1.61 | 1.42 | 0.892 | 0.695 | 0.00157 | 1.67
HCI-025, days in culture: 172 | 2.92 | 1.82 | 3.92 | 2.04 | 2.08 | 0.426 | -0.311 | 2.26
HCI-025, days in culture: 209 | 1.9 | 2.67 | 2.31 | 1.69 | 1.9 | 0.545 | -0.0263 | 1.59
HCI-025, days in culture: 218 | 1.38 | 1.94 | 1.97 | 1.83 | 1.03 | 0.271 | -0.304 | 1.62
HCI-027, days in culture: 176 | 3.12 | 1.73 | 3.18 | 2.13 | 1.7 | 0.11 | -0.239 | 3.68
HCI-027, days in culture: 194 | 2.35 | 1.82 | 2.05 | 2.39 | 1.88 | 0.735 | -0.0845 | 2.19
HCI-027, days in culture: 201 | 3.32 | 3.11 | 3.01 | 2.94 | 1.55 | 0.457 | -0.0215 | 2.7

HCI-011.E2
Conditions | CTG-3D luminescence at 96 h
12.5 pM | 1.33
0.00025 µM | 1.59
0.005 µM | 1.3
0.1 µM | 1.76
1 µM | 1.7
10 µM | 1.55
100 µM | 0.00155
625 fM | 1.465

CC(=O)O[C@H]1C(=O)[C@@]2(C)[C@H]([C@H](OC(=O)c3ccccc3)[C@]3(O)C[C@H](OC(=O)[C@H](O)[C@@H](NC(=O)c4ccccc4)c4ccccc4)C(C)=C1C3(C)C)[C@]1(OC(C)=O)CO[C@@H]1C[C@@H]2O [paclitaxel]
CTG-3D luminescence at 96 h
Conditions | 12.5 pM | 0.00025 µM | 0.005 µM | 0.1 µM | 1 µM | 10 µM | 100 µM | 625 fM
HCI-008, days in culture: 228 | 1.67 | 1.93 | 0.719 | 0.575 | 0.627 | 0.764 | 0.554 | 1.55
HCI-008, days in culture: 244 | 1.16 | 1.96 | 1.22 | 0.925 | 0.832 | 0.852 | 0.58 | 2.02
HCI-010, days in culture: 52 | 2.13 | 2.39 | 2.24 | 1.16 | 1.15 | 1.12 | 0.408 | 2.28
HCI-010, days in culture: 65 | 1.61 | 1.57 | 1.36 | 1.05 | 0.898 | 0.958 | 0.43 | 1.64
HCI-010, days in culture: 103 | 3.62 | 3.37 | 3.05 | 1.41 | 1.24 | 1.28 | 0.858 | 3.06
HCI-011.E2, days in culture: 74 | 2.01 | 2.21 | 1.82 | 1.95 | 1.91 | 2.73 | 1.85 | 2.25
HCI-023, days in culture: 111 | 1.34 | 1.27 | 0.476 | 0.484 | 0.433 | 0.474 | 0.492 | 1.58
HCI-023, days in culture: 128 | 1.36 | 1.38 | 0.502 | 0.609 | 0.483 | 0.786 | 0.605 | 1.41
HCI-025, days in culture: 172 | 1.17 | 0.343 | 0.553 | 0.314 | 0.362 | 0.295 | 0.584 | 0.698
HCI-025, days in culture: 209 | 2.09 | 2.2 | 1.75 | 0.281 | 0.353 | 0.301 | 0.767 | 2
HCI-025, days in culture: 218 | 1.85 | 2.18 | 1.43 | 0.199 | 0.168 | 0.213 | 0.507 | 1.92
HCI-027, days in culture: 176 | 2.38 | 1.31 | 0.504 | 0.265 | 0.283 | 0.392 | 0.34 | 2.59
HCI-027, days in culture: 194 | 1.95 | 1.6 | 0.751 | 0.185 | 0.242 | 0.511 | 0.427 | 1.65
HCI-027, days in culture: 201 | 2.25 | 2.16 | 0.808 | 0.215 | 0.284 | 0.563 | 0.342 | 2.03

HCI-011.E2
Conditions | CTG-3D luminescence at 96 h
12.5 pM | 1.3
0.00025 µM | 1.33
0.005 µM | 1.09
0.1 µM | 1.41
1 µM | 1.34
10 µM | 1.77
100 µM | 1.8
625 fM | 1.52

C/C=C1\NC(=O)[C@H]2CSSCC/C=C/[C@H](CC(=O)N[C@H](C(C)C)C(=O)N2)OC(=O)[C@H](C(C)C)NC1=O [romidepsin]
CTG-3D luminescence at 96 h
Conditions | 12.5 pM | 0.00025 µM | 0.005 µM | 0.1 µM | 1 µM | 10 µM | 100 µM | 625 fM
HCI-008, days in culture: 228 | 1.78 | 1.7887 | 0.632 | 0.0457 | 0.0185 | 0.0061 | -0.00528 | 2.13
HCI-008, days in culture: 244 | 1.41 | 2.08 | 0.607 | 0.0448 | 0.0206 | 0.00309 | -0.0086 | 2.35
HCI-010, days in culture: 52 | 1.97 | 2.29 | 1.13 | 0.189 | 0.128 | 0.0169 | -0.00333 | 1.81
HCI-010, days in culture: 65 | 1.32 | 1.34 | 0.941 | 0.326 | 0.276 | 0.0354 | -0.00525 | 1.52
HCI-010, days in culture: 103 | 2.94 | 3.14 | 1.69 | 0.316 | 0.226 | 0.0082 | -0.00621 | 2.77
HCI-011.E2, days in culture: 74 | 2.09 | 2.7 | 1.63 | 0.493 | 0.486 | 0.0744 | -0.0129 | 1.63
HCI-023, days in culture: 111 | 1.65 | 1.37 | 0.46 | 0.0304 | 0.0241 | -0.00341 | -0.0106 | 1.9
HCI-023, days in culture: 128 | 1.66 | 1.55 | 0.343 | 0.104 | 0.0518 | 0.00597 | -0.00382 | 1.556
HCI-025, days in culture: 172 | 1.84 | 1.14 | 1.58 | -0.245 | -0.354 | -0.306 | -0.318 | 1.48
HCI-025, days in culture: 209 | 1.99 | 2.87 | 1.48 | 0.312 | 0.313 | 0.034 | -0.0293 | 1.94
HCI-025, days in culture: 218 | 1.5 | 2.01 | 0.886 | -0.155 | -0.189 | -0.329 | -0.306 | 1.84
HCI-027, days in culture: 176 | 2.43 | 1.27 | 0.05 | 0.0166 | 0.376 | -0.165 | -0.237 | 2.12
HCI-027, days in culture: 194 | 2.63 | 1.95 | 0.739 | 0.437 | 0.349 | -0.0181 | -0.0853 | 2.17
HCI-027, days in culture: 201 | 3.22 | 2.72 | 1.35 | 0.611 | 0.234 | 0.136 | -0.0194 | 3.25

HCI-011.E2
Conditions | CTG-3D luminescence at 96 h
12.5 pM | 1.55
0.00025 µM | 1.34
0.005 µM | 0.559
0.1 µM | 0.47
1 µM | 0.382
10 µM | 0.0141
100 µM | -0.00792
625 fM | 0.902
